{
  "source": "ChEMBL document CHEMBL1141821",
  "about": "“Bioactive sesquiterpenes from a Taiwanese marine sponge Parahigginsia sp” (J Nat Prod, 1999)",
  "assay_type_in_all_cases": "functional, cell-based",
  "key": {"A549": {"system": "A549", "experiment": "Cytotoxicity against human A549 cells after 6 days by MTT assay", "conditions": "A549, 144 h"}, "HT-29": {"system": "HT-29", "experiment": "Cytotoxicity against human HT-29 cells after 6 days by MTT assay", "conditions": "HT-29, 144 h"}, "[1]": {"experiment": "Cytotoxicity against human KB16 cells after 3 days by MTT assay", "conditions": "KB16, 72 h"}, "P388": {"system": "P388", "experiment": "Cytotoxicity against mouse P388 cells after 3 days by MTT assay", "conditions": "P388, 72 h"}},
  "data": [
    {"smiles": "CC(C)=C/C=C/C(C)c1ccc(C=O)c(O)c1O", "note": "(stereo not drawn) [PARAHIGGINOL D]", "values": [
      {"measurement": "IC50", "setting": "A549", "result": 3.8, "unit": "µg/mL"},
      {"measurement": "IC50", "setting": "HT-29", "result": 3.3, "unit": "µg/mL"},
      {"measurement": "IC50", "setting": "[1]", "result": 7.2, "unit": "µg/mL"},
      {"measurement": "IC50", "setting": "P388", "result": 2.9, "unit": "µg/mL"}
    ]},
    {"smiles": "CC(C)=CCC[C@H](C)c1ccc(C)cc1O", "values": [
      {"measurement": "IC50", "setting": "HT-29", "result": 8.1, "unit": "µg/mL"},
      {"measurement": "IC50", "setting": "[1]", "result": 8.3, "unit": "µg/mL"},
      {"measurement": "IC50", "setting": "P388", "result": 0.1, "unit": "µg/mL"}
    ]},
    {"smiles": "COc1cc(C(=O)O)ccc1C(C)/C=C/C=C(C)C", "note": "(stereo not drawn) [PARAHIGGINIC ACID]", "values": [
      {"measurement": "IC50", "setting": "A549", "result": 3.9, "unit": "µg/mL"},
      {"measurement": "IC50", "setting": "HT-29", "result": 6, "unit": "µg/mL"},
      {"measurement": "IC50", "setting": "[1]", "result": 4.8, "unit": "µg/mL"},
      {"measurement": "IC50", "setting": "P388", "result": 1, "unit": "µg/mL"}
    ]},
    {"smiles": "Cc1ccc(C(C)CC(O)CC(C)C)c(O)c1", "note": "(stereo not drawn) [PARAHIGGINOL A]", "values": [
      {"measurement": "IC50", "setting": "A549", "result": "> 50", "unit": "µg/mL"},
      {"measurement": "IC50", "setting": "HT-29", "result": "> 50", "unit": "µg/mL"},
      {"measurement": "IC50", "setting": "[1]", "result": "> 50", "unit": "µg/mL"},
      {"measurement": "IC50", "setting": "P388", "result": "> 50", "unit": "µg/mL"}
    ]},
    {"smiles": "CC(=O)OC(CC(C)C)CC(C)c1ccc(C=O)cc1O", "note": "(stereo not drawn) [PARAHIGGINOL B]", "values": [
      {"measurement": "IC50", "setting": "A549", "result": 10, "unit": "µg/mL"},
      {"measurement": "IC50", "setting": "HT-29", "result": 3.5, "unit": "µg/mL"},
      {"measurement": "IC50", "setting": "[1]", "result": 4.9, "unit": "µg/mL"},
      {"measurement": "IC50", "setting": "P388", "result": 3, "unit": "µg/mL"}
    ]},
    {"smiles": "CC(=O)OC(CC(C)C)CC(C)c1ccc(C)cc1O", "note": "(stereo not drawn) [PARAHIGGINOL C]", "values": [
      {"measurement": "IC50", "setting": "A549", "result": 2.8, "unit": "µg/mL"},
      {"measurement": "IC50", "setting": "HT-29", "result": 2.6, "unit": "µg/mL"},
      {"measurement": "IC50", "setting": "[1]", "result": 3.9, "unit": "µg/mL"},
      {"measurement": "IC50", "setting": "P388", "result": 2.5, "unit": "µg/mL"}
    ]}
  ]
}
